Columns and labels:
Assay type in all cases: cell-based
Aged Human Keratinocytes = experiment: Glutathione assay (total glutathione, GSH-GSSG Glo) after menadione challenge; settings: for Mean (uM glutathione): Table 1A; for % Protection (improvement vs. vehicle control + menadione): glutathione
Source text: The medium was refreshed every 2-3 days. Subsequently, cells were trypsinized at 90% confluency and seeded at a density of 1×10^4 per well into 96-well plates with white wall and clear bottom. […] The concentration of all amino acids constituting the GAP mixture used in this assay are designated in the data tables, and fully described in the abbreviations list below. After one or two hours of pre-treatment with GAP (and additional test reagents where described), keratinocytes were then challenged with 25 uM menadione (Sigma-Aldrich), a known inducer of oxidative stress. […] In summary, after cell treatment, the media was removed and replaced with a cell lysis reagent for 5 minutes at 20-25° C.; note, all remaining steps were also conducted at 20-25° C. Next, a luciferase generation reagent was added to each well and incubated for 30 minutes. Following this step, a luciferin detection reagent was added to each well and plates were incubated for 15 minutes. Finally, plates were then read for luminescence in a FlexStation 3 plate reader (Molecular Devices). Total glutathione levels were calculated after interpolation of glutathione concentrations from a standard curve. Experimental conditions were typically conducted in at least triplicate determinations. Statistical significance was calculated using 1-way ANOVA. Percent protection was calculated by using the calculated glutathione levels from each experiment in the following equation: […]

Human Keratinocytes [1] = experiment: Cell viability assay (CCK-8); settings: for % Protection (improvement vs. vehicle control + menadione): cell viability
Experimental: The medium was refreshed every other day. Subsequently, cells were trypsinized at 90% confluency and seeded at a density of 2×10^4 per well into 96-well transparent tissue culture plates. On the second day after seeding, cell medium was replaced with treatments as described above in ROS assay section. After 18 hours, […] (CCK-8) reagent (Dojindo, Kumamoto, Japan) was diluted 1:10 in HBSS and incubated with cells for 4 h at 37° C. in a humidified incubator. Optical absorption at 450 nm was measured using a Tecan Safire2 plate reader. […] Where indicated, percent protection was calculated as a comparison to menadione alone treatment, using the measured relative absorbance units in the following equation: […]

Human Keratinocytes [2] = experiment: Reactive oxygen species (ROS) assay, CellROX green; settings: for % Protection (improvement vs. vehicle control + menadione): ROS
Experimental: The medium was refreshed every other day. Subsequently, cells were trypsinized at 90% confluency and seeded at a density of 1-2×10^4 per well into 96-well plates with black wall and clear bottom. On the second day after seeding, cell medium was replaced with Hank's Balanced Salt Solution (HBSS) with or without menadione (10-25 uM), GAP (typically at 49 uM pyroglutamic acid, 60 uM cystine, 194 uM glycine), GAP vehicle (0.2 mM NaOH, pH 7.5), above-described additional test reagents, combinations of GAP with additional test reagents, or L-cystine esters alone and incubated for additional 18 hours. For ROS detection, CellROX green (Life Tech, Thermo Fisher Scientific, Rockford, USA) reagent was added into each well to a final concentration of 15-25 uM and incubated for additional 2-4 hours at 37° C. in a humidified incubator. The ROS fluorescence was detected using a Tecan microplate reader (Excitation/Emission=490/525). […] Where indicated, percent protection was calculated as a comparison to menadione alone treatment, using the measured relative fluorescent units in the following equation: ROS levels were evaluated together with cell viability because it is possible to get a false negative for ROS if treatment is so toxic that at the time of assay, cells are dead (and there are no longer any detectable ROS). Decrease in ROS levels is meaningful if cells are still viable.

[3] = Table 1A glutathione, test reagent at 0.5 mM, alone or with GAP 10, + 25 uM menadione
[4] = Table 1A glutathione, test reagent at 5 mM, alone or with GAP 10, + 25 uM menadione
[5] = Table 1A glutathione, test reagent at 10 mM, alone or with GAP 10, + 25 uM menadione
[6] = nicotinamide / nicotinamide riboside / picolinamide at 0.5 mM, alone or with GAP 10, + 25 uM menadione
[7] = nicotinamide / picolinamide at 5 mM, alone or with GAP 10, + 25 uM menadione
[8] = nicotinamide / picolinamide at 10 mM, alone or with GAP 10, + 25 uM menadione
[9] = Table 1B, vs menadione alone, nicotinamide 10 mM, GAP typically 49/60/194 uM
[10] = cystine ester at 20 uM + menadione
[11] = cystine ester at 40 uM + menadione
[12] = cystine ester at 80 uM + menadione
[13] = cystine ester at 160 uM + menadione

SMILES	% Protection (Aged Human Keratinocytes; [3])	% Protection (Aged Human Keratinocytes; [4])	% Protection (Aged Human Keratinocytes; [5])	Mean (uM glutathione) (Aged Human Keratinocytes; [6])	Mean (uM glutathione) (Aged Human Keratinocytes; [7])	Mean (uM glutathione) (Aged Human Keratinocytes; [8])	% Protection (improvement vs. vehicle control + menadione) (Human Keratinocytes [1]; [10])	% Protection (improvement vs. vehicle control + menadione) (Human Keratinocytes [1]; [11])	% Protection (improvement vs. vehicle control + menadione) (Human Keratinocytes [1]; [12])	% Protection (improvement vs. vehicle control + menadione) (Human Keratinocytes [1]; [13])	Cell viability (% of vehicle control) (Human Keratinocytes [1]; [10])	Cell viability (% of vehicle control) (Human Keratinocytes [1]; [11])	Cell viability (% of vehicle control) (Human Keratinocytes [1]; [12])	Cell viability (% of vehicle control) (Human Keratinocytes [1]; [13])	% Protection (improvement vs. vehicle control + menadione) (Human Keratinocytes [2]; [10])	% Protection (improvement vs. vehicle control + menadione) (Human Keratinocytes [2]; [11])	% Protection (improvement vs. vehicle control + menadione) (Human Keratinocytes [2]; [12])	% Protection (improvement vs. vehicle control + menadione) (Human Keratinocytes [2]; [13])	Mean (μm glutathione) (Aged Human Keratinocytes; [12])	% Protection (improvement vs. vehicle control + menadione) (Aged Human Keratinocytes; [12])	also measured
NC(=O)c1ccccn1 [Picolinamide, picolinamide]	2%	0%	0%	0.23 µM	0.18 µM	0.16 µM	–	–	–	–	–	–	–	–	–	–	–	–	–	–	–
NC(=O)c1cccnc1 [Nicotinamide]	0%	0%	1%	0.17 µM	0.14 µM	0.20 µM	–	–	–	–	–	–	–	–	–	–	–	–	–	–	cell viability (% of control) (Human Keratinocytes [1]; Table 1B, + menadione, 18 h, nicotinamide 10 mM, GAP typically 49/60/194 uM): 92.90^3 % of control; % Protection (cell viability) (Human Keratinocytes [1]; [9]): 15.41^3%; ROS production (% of control) (Human Keratinocytes [2]; Table 1B, + menadione, 18 h, nicotinamide 10 mM, GAP typically 49 uM pyroglutamic acid, 60 uM cystine, 194 uM glycine): 231.00^3 % of control; % Protection (ROS) (Human Keratinocytes [2]; [9]): 17.70^3%; % Protection (Aged Human Keratinocytes; Table 2A glutathione, nicotinamide at 5 mM, alone or with amino acids, + menadione): 3^1%; Mean (Glutathione Synthesis) (Aged Human Keratinocytes; Table 2A, nicotinamide at 5 mM, alone or with amino acids, + menadione): 0.13^1
COC(=O)[C@@H](N)CSSC[C@H](N)C(=O)OC.Cl.Cl [CDME, L-Cystine dimethyl ester dihydrochloride]	–	–	–	–	–	–	30.2^1,2%	33.4^1,2%	24.6^1,2%	51.7^1,2%	90.9^1,2 % of vehicle control	93.1^1,2 % of vehicle control	87.0^1,2 % of vehicle control	105.9^1,2 % of vehicle control	18.2^2%	15.5^1,2%	13.3^1,2%	25.7^2%	1.09^1,2 μm	31^1,2%	–
NC(=O)c1ccc[n+]([C@@H]2O[C@H](CO)[C@@H](O)[C@H]2O)c1 [Nicotinamide riboside, nicotinamide riboside]	0%	–	–	0.16 µM	–	–	–	–	–	–	–	–	–	–	–	–	–	–	–	–	–
CC(C)(C)OC(=O)[C@@H](N)CSSC[C@H](N)C(=O)OC(C)(C)C.Cl.Cl [DTBC, Ditert-butyl L-cystinate dihydrochloride]	–	–	–	–	–	–	6.0%	3.0%	−0.1%	41.3^2%	78.1^1 % of vehicle control	75.9^1 % of vehicle control	73.6^1 % of vehicle control	104.2^2 % of vehicle control	2.2%	13.8^1,2%	28.4^1,2%	41.1^1,2%	0.19^1 μm	1^1%	Mean (μm glutathione) (Aged Human Keratinocytes; [11]): 0.17^1 μm; % Protection (improvement vs. vehicle control + menadione) (Aged Human Keratinocytes; [11]): 0^1%
CCOC(=O)[C@@H](N)CSSC[C@H](N)C(=O)OCC.Cl.Cl [DEC, Diethyl L-cystinate dihydrochloride]	–	–	–	–	–	–	48.9^2%	72.7^1,2%	78.3^1,2%	65.9^1,2%	109.8^2 % of vehicle control	127.3^1,2 % of vehicle control	131.5^1,2 % of vehicle control	122.3^1,2 % of vehicle control	38.0^1,2%	43.6^1,2%	37.7^1,2%	32.4^1,2%	2.72^1,2 μm	93^1,2%	Mean (μm glutathione) (Aged Human Keratinocytes; [11]): 0.54^1,2 μm; % Protection (improvement vs. vehicle control + menadione) (Aged Human Keratinocytes; [11]): 13^1,2%

Source: patent US20200016059A1, “PERSONAL CARE COMPOSITIONS WITH GLUTATHIONE PRECURSOR COMPRISING NICOTINAMIDE AND AMINO ACIDS” (Conopco, Inc., d/ba UNILEVER, priority 2016, published 2020)
